The term Ki denotes the equilibrium dissociation constant of an inhibitor or competing ligand from its target. As usually defined, the IC50 is the concentration that inhibits the measured activity by half. High values mean a need for much substance, low ones inhibition by little substance.

The record followed here is patent US7358250B2, “Pyrrolo[2,3-d]pyrimidines that modulate ACK1 activity” (Amgen Inc., priority 2004, dated 2008).

One series has as its target T1, ACK1 (Homo sapiens, UniProt Q07912).
T1 construct: a fusion of an N-terminal (His)6 Tag with amino acids 117 to 489 of ACK1; (His)6 (N); made in house; host or cells: baculovirus infected Hi-5 insect cells
The experiment in a line: ACK1 Enzymatic Assay. Type of series: biochemical. The conditions noted are these: 5 μM ATP, ELISA phosphotyrosine readout. As to the method: IC50 values of inventive compounds may be assessed as follows. […] The substrate of for the reaction is ACK1 itself (autophosphorylation) and poly-Glutamic acid-Tyrosine (PGT (4:1), Sigma catalog #PO275). The PGT is coated to Nunc 96 well plates at 80 μg/mL overnight at 4° C. […] Test compounds are added in 10 μL DMSO, and the reaction is started by addition of 10 μL kinase in assay buffer. The reaction proceeds 2 h at room temperature. Next the plates are washed four times, and the level of tyrosine phosphorylation in a given well is quantified by standard ELISA assay utilizing a phosphotyrosine antibody (PY20, Pierce).

The next series concerns C8 cells. The experiment in a line: ACK1 Cell Based Assay, test (C8) cell line. The conditions noted are these: 0.125% FCS, 20 to 24 h; for IC50: cell viability (Cytotox One kit). The method, then: (§1) The ACK1 cell based assay is designed to find inhibitors of ACK1 kinase activity which would be prime candidates for the development of anticancer drugs. […] This dependency was confirmed utilizing ACK1 specific siRNAs.
(§2) For this assay, test (C8) and control (HeLa) cell lines are seeded in 96 well tissue culture plates (BD Falcon) at a density of 2 to 4×10^4 in DMEM/F12 (C8) or DMEM (HeLa) with 0.125% FCS in the presence of ACK1 inhibitors (final DMSO concentration is 0.5%, all tissue culture media are from Cellgro). After 20 to 24 h incubation at 37° C. and 5% CO2, cell viability is determined using the Cytotox One kit (Promega) according to the manufacturer's instructions.

For a further series, the system named is HeLa cells. Nature of the series: ACK1 Cell Based Assay, control (HeLa) cell line. The conditions noted are these: 0.125% FCS, 20 to 24 h. The method, then:
as §1, §2

A further series addresses T2, LCK (Homo sapiens, UniProt P06239).
T2 construct: 15 μL of LCK KD GST (225-509) for a final volume of 40 μL; GST
The experiment in a line: LCK-Homogeneous Time Resolved Fluorescent (HTRF) Kinase Assay. The series is classed as biochemical. The conditions noted are these: LCK KD GST (225-509). The method, then:
The LCK HTRF assay begins with LCK in the presence of ATP phosphorylating the biotinylated peptide Gastrin. The reaction incubates for 90 min. To quench the assay detection reagents are added which both stop the reaction by diluting out the enzyme and chelating the metals due to the presence of EDTA. Once the detection reagents are added the assay incubates for 30 min to allow for equilibration of the detection reagents.
The final concentration of gastrin is 1.2 μM. The final concentration of ATP is 0.5 μM (Km app=[…]) and the final concentration of LCK is […]. Buffer conditions are as follows: 50 mM HEPES pH 7.5, 50 mM NaCl, 20 mM MgCl, 5 mM MnCl, 2 mM DTT, 0.05% BSA.
The assay is quenched and stopped with 160 μL of detection reagent. Detection reagents are as follows: Buffer made of 50 mM Tris, pH 7.5, 100 mM NaCl, 3 mM EDTA, 0.05% BSA, 0.1% Tween20. Added to this buffer prior to reading is Steptavidin allophycocyanin (SA-APC) at a final conc in the assay of 0.0004 mg/mL, and europilated anti-phosphotyrosine Ab (Eu-anti-PY) at a final conc of 0.025 nM.
The assay plate is read in either a Discovery or a RubyStar. The eu-anti-PY is excited at 320 nm and emits at 615 nm to excite the SA-APC which in turn emits at 655 nm. The ratio of SA-APC at 655 nm (excited due to close proximity to the Eu-anti-PY because of phosphorylation of the peptide) to free Eu-anti-PY at 615 nm will give substrate phosphorylation.

T2 sequence (P06239 225-509): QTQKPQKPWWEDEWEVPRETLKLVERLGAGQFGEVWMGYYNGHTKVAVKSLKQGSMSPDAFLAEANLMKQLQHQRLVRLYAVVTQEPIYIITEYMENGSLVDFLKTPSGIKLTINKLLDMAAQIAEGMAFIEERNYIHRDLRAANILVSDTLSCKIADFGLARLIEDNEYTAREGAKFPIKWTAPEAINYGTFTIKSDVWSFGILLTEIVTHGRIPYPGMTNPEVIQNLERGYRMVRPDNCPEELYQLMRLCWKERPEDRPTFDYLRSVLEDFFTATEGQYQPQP
T1 sequence (Q07912 117-489): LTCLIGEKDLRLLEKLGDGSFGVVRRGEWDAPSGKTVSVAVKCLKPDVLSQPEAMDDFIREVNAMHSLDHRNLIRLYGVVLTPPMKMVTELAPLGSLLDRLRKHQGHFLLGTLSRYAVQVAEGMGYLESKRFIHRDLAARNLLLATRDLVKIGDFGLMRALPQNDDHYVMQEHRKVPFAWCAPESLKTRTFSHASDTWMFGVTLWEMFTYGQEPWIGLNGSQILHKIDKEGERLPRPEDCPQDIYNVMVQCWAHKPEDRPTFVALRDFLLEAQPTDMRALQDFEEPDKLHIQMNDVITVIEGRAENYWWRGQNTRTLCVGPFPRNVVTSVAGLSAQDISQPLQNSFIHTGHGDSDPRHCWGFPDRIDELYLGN

Take `CN(C)CCOc1ccc(-c2[nH]c3ncnc(NC[C@@H]4CCCO4)c3c2-c2ccccc2)cc1` [Example 20, {6-[4-(2-Dimethylamino-ethoxy)-phenyl]-5-phenyl-7H-pyrrolo[2,3-d]pyrimidin-4-yl}-(tetrahydro-furan-2-ylmethyl)-amine]: the Ki on ACK1 was under 10 nM. Moreover, in the series with C8 cells, the “cytotoxicity to C8 cells” value is recorded as “cytotoxic” and the IC50 lay within 10 to 100 nM. Further, the “cytotoxic effect on HeLa cells” value in the series with HeLa cells is “no cytotoxic effect”. Also, at LCK, the Ki was under 10 nM.
Take `CN(C)CCNC(=O)c1ccc(-c2[nH]c3ncnc(NCC4CCCO4)c3c2-c2ccccc2)cc1` (centres unmarked) [Example 32, N-(2-Dimethylamino-ethyl)-4-{5-phenyl-4-[(tetrahydrofuran-2-ylmethyl)-amino]-7H-pyrrolo[2,3-d]pyrimidin-6-yl}-benzamide]: the inhibition constant Ki on ACK1 and at LCK was under 10 nM throughout. Moreover, the IC50 in the series on C8 cells was 10 to 100 nM.
Consider `CN(C)CCOc1ccc(-c2[nH]c3ncnc(NCC4CCC4)c3c2-c2ccccc2)cc1` [Example 34, Cyclobutylmethyl-{6-[4-(2-dimethylamino-ethoxy)-phenyl]-5-phenyl-7H-pyrrolo[2,3-d]pyrimidin-4-yl}-amine], for which the values for the Ki on ACK1 and at LCK were 10 to 100 nM and under 10 nM, respectively. The compound further returned an IC50 in the series on C8 cells of over 100 nM.
